Like-named read-outs stand apart in the source and are kept apart here.
Columns and labels:
[1] = system: eukaryotic cells expressing ganglioside GM1; assay type: cell-based
[2] = HPLC analysis of methyl ester hydrolysis of succinylated norcocaine; details: 25° C.
[3] = in vivo; cited from earlier work
anti-cocaine antisera = assay: Specificity competition ELISA: drugs inhibiting binding of antibodies to cocaine-HEL; details: pool of antisera of mice immunized with cocaine-CTB PS-5.53; varying concentrations
[4] = system: antibodies in the rat sera binding to PS-5.4 HEL; details: sera of rats immunized with cocaine-rCTB conjugate
[5] = system: antibodies in the sera binding to PS-55 HEL; assay: Competition ELISA with free nicotine or cotinine; design: species or system mouse; details: sera of mice injected with PS-55 BSA
Protocol: To determine whether the induced antibodies are capable of recognizing the free nicotine molecule, a competition ELISA was performed. In this assay, free nicotine competes with PS-55 HEL coated to ELISA plates for the binding of antibodies in the sera. If the antibodies that have a high affinity for nicotine comprise most of the antibodies binding to the PS-55 HEL, then low concentrations of nicotine are capable of effectively inhibiting the antibody binding. For 3 out of 4 mice described above which were injected with PS-55 BSA, antibody binding to PS-55 HEL was inhibited by free nicotine (FIG. 25). Note that the presence of antibody specific for the conjugate alone would not be expected to interfere with the action of the anti-nicotine antibody.

[6] = cited from earlier work; for plasma half life: Henningfield (1995); for peak plasma concentration: in vivo
[7] = pre-incubation with 50-fold excess unlabeled nicotine
Protocol: Immune sera from the above experiment was incubated with [^3H]-nicotine and protein-G-conjugated Sepharose beads (Gammabind-G Sepharose, Pharmacia), which bind IgG in the sera samples. The antibody-bound [^3H]-nicotine was isolated by centrifugation of the beads and was detected by scintillation counting of the beads.

[8] = Cocaine LD50 and time-to-death in immunized and naive mice; details: BALB/c, mouse, in vivo
Protocol: In these experiments, cocaine-immunized and control carrier-immunized mice are injected i.v. with cocaine at doses around the previously defined LD50. Ten mice are used at each point, and the data is analyzed using a Cochran-Mantel-Haenzel Chi-squared test.
In addition, a failure time model is used to analyze the time-to-death induced by cocaine. The extent to which the anti-cocaine antibodies increase both (a) the dose of cocaine required for lethality and (b) the time-to-death are measures of efficacy in this model. These provide a rapid and rigorous test of the in vivo efficacy of the antibodies.
The efficacy of therapeutic vaccination against cocaine was assessed by determining the lethal dose of cocaine (LD50) in immunized and naive animals. […] Each of the mice was bled at day 34 and serum antibody titers and competition with cocaine were assessed. […] For the LD50 experiment, 4-6 mice were used per group and each group was carefully matched for antibody titer and apparent affinity for free cocaine.

rats = assay: Discrimination of cocaine from saline, 2-lever procedure; assay type: in vivo; details: Rattus norvegicus, ip; rats trained on 10 mg/kg cocaine i.p., cumulative dosing; read-out: ED50±95% C.I. for cocaine-appropriate responses
Text: After cocaine injections are given, the animals are required to press one of the levers (drug-appropriate lever) 10 times (FR 10) to obtain a food pellet; upon saline injections, they are required to press the other lever (saline-appropriate lever) 10 times to obtain a food pellet. When animals have learned to discriminate cocaine from saline, at least 90% of the total responses are made on the appropriate lever for several consecutive days. In order to incorporate a cumulative dosing procedure during later substitution test sessions, training sessions are made up of multiple components, each lasting for 10 min or until 10 FRs are completed, whichever occurred first.
Following training, substitution test sessions with different doses of cocaine (0.3-17.8 mg/kg) are conducted twice weekly, with training sessions on intervening days. Drug substitution test sessions consisted of four 10 min components, each preceded by a 15 min time-out period. During substitution tests, completion of 10 responses on either lever produce a food pellet. Incremental doses of cocaine are injected at the beginning of each of the 4 time-out periods. Overlapping ranges of cumulative doses are studied on different test days, permitting a seven-point cumulative dose-response curve to be determined in a single week. […]

mice = details: for total levels of cocaine in the brains of control mice: mouse, in vivo
[9] = cited from earlier work

For rCTB, the “binding to cells (flow cytometry)” value [1] was “bound to eukaryotic cells expressing ganglioside GM1”.
With COC(=O)[C@H]1[C@@H](OC(=O)c2ccccc2)C[C@@H]2CC[C@H]1N2C(=O)CCC(=O)O [succinylated norcocaine, 3β-(Benzoyloxy)-8-succinoyl-8-azabicyclo[3.2.1]octane-2β-carboxylic acid methyl ester] the “time for 5% degradation” value ([2]; pH 6) was 1.30 years and the “time for 5% degradation” value ([2]; pH 8) was 10.96 days.
For CNCCCN1c2ccccc2CCc2ccccc21 [desipramine], the “cocaine abstinence rate following treatment” value [3] is given as ≤ 70%.
In the case of CN1[C@H]2CC[C@@H]1[C@@H](C(=O)O)[C@@H](OC(=O)c1ccccc1)C2 [benzoylecgonine, 3β-(Benzoyloxy)-8-methyl-8-azabicyclo[3.2.1]octane-2β-carboxylic acid], the “inhibition of binding of antibodies to cocaine-HEL” value (anti-cocaine antisera) is reported as “at high concentrations” and the “competition of rat sera” value [4] is reported as “none of the sera tested are able to be competed by benzoylecgonine”.
For CN1C(=O)CCC1c1cccnc1 (stereo not shown) [cotinine, N-Methyl-2-(3-pyridyl)-5-pyrrolidone], the “competition for antibodies in the sera” value [5] is given as “cannot compete with antibodies in any of the sera except at very high concentrations” and the plasma half life [6] is given as 19 h.
In the case of CN1CCCC1c1cccnc1 (stereo not shown) [nicotine, 1-Methyl-2-(3-pyridyl)pyrrolidine], the “inhibition of [^3H]-nicotine binding to antibodies” value [7] is listed as “completely inhibited the binding”, the plasma half life [6] is listed as “approximately two” and the peak plasma concentration [6] is listed as 25 to 50 ng/mL.
In the case of COC(=O)[C@H]1[C@@H](OC(=O)c2ccccc2)C[C@@H]2CC[C@H]1N2C [cocaine, 3β-(Benzoyloxy)-8-methyl-8-azabicyclo[3.2.1]octane-2β-carboxylic acid methyl ester], the LD50 ([8]; ip) is reported as 20 mg/kg, the LD50 ([8]; iv) is reported as 3 mg/kg and the ED50 (rats) is reported as 2.14 ± 0.2 mg/kg. The “time of peak cocaine levels” value (mice; after intranasal administration) was 2 to 5 min, the “time of peak cocaine levels” value (mice; after intravenous injection) was 0.25 min and the “total levels of cocaine in the brains of control mice” value (mice) was 1538 ng/g. For the same compound, the “total levels of cocaine in the brains of control mice” value (mice; iv) was 2260 ng/g, the “published peak plasma levels” value ([6]; in addicts, Ambre 1991, Cone 1995, Cone 1989) was 0.3 to 1.5 µg/mL and the peak plasma concentration [6] was 300 to 1000 ng/mL.
For C[C@]12N[C@H](Cc3ccccc31)c1ccccc12 [MK-801], the “increase of cocaine LD50” value ([9]; alone) is listed as 1.3 fold and the “increase of cocaine LD50” value ([9]; combined with propanolol) is listed as 1.4 fold.
